Assay results: patent US9994560B2, “HPTP-β inhibitors” (Aerpio Therapeutics Inc., priority 2014, dated 2018)
Values after ≈ are worked out from the molar mass of the structure shown. Values joined by “and” are separate entries in the source; they are usually repeats but may differ in a detail not shown here. Equal entries are not always repeated.

Assays:
[1] = system: Akt phosphorylation, a measure of Tie2 activation; test: Akt phosphorylation ELISA (PathScan Phospho-Akt1 (Ser473) Sandwich ELISA) in HUVECs; assay type: cell-based, human; details: 10 minutes
Procedure: (§1) Human umbilical vein endothelial cells (HUVECs) were isolated freshly from human placenta, grown in endothelial growth medium, and used before passage 6. To evaluate the effects of the compounds on phosphorylation of Tie2 and downstream signaling molecules, cells were serum-starved in endothelial basal medium without added growth factors for 3 hours before stimulation. Cells were treated for 10 minutes with vehicle (DMSO), or compounds A, B, C, or D in DMSO. Cells were lysed in RIPA buffer (150 mM NaCl, 1% IGEPAL CA-630, 0.05% sodium deoxycholate, 0.1% SDS, 20 mM Tris-HCl at pH 7.6, 1 mM EDTA, 1 mM NaF, 1 mM sodium orthovanadate, 5 mM benzamidine) plus complete protease inhibitor cocktail tablets. Tie2 was then immunoprecipitated from cell lysates with a mouse monoclonal antibody (clone 33) and probed sequentially with mouse monoclonal anti-phosphotyrosine (clone 4G10) and anti-Tie2 (clone 33). Whole cell lysates were used to quantify phospho-AKT with the PathScan Phospho-Akt1 (Ser473) Sandwich ELISA Kit according to the manufacturer's instructions. Relative AKT phosphorylation in each experiment was quantified by OD450.
FIG. 45 represents data from an ELISA to determine Akt phosphorylation, a measure of Tie2 activation. Consistent with FIG. 44, compound D had the strongest effect on Tie2 activation, as determined by the high levels (OD450=1.2) of relative Akt phosphorylation even at the lowest dose of compound D (1 μg/mL). […] Akt phosphorylation further increased (OD450=0.45) when 10 μg/mL of compound A was used.

[2] = system: Tie2; test: Tie2 phosphorylation, immunoprecipitation and western blot in HUVECs; assay type: cell-based, human; details: HUVECs treated for 10 minutes; anti-phosphotyrosine western blot (FIG. 44)
Procedure: as §1, with “Tie2 was then immunoprecipitated from cell lysates with a mouse monoclonal antibody (clone 33) and probed sequentially with mouse monoclonal anti-phosphotyrosine (clone 4G10) and anti-Tie2 (clone 33).” left out
FIG. 44 is a western blot of Tie2 immunoprecipitated from endothelial cells treated with DMSO control or the indicated compounds (D, C, B, or A), and then sequentially probed with an anti-Tie2 antibody to detect total Tie2 (lower blot) and an anti-phosphotyrosine antibody to detect phosphorylated Tie2 (upper blot). […] An increase in Tie2 phosphorylation compared to the DMSO control was not detected for compounds A, B, and C.

[3] = Room temperature aqueous solubility with solubilizing agents; assay type: physicochemical
Description: The room temperature aqueous solubility (mg/mL) of the compound (4-{(S)-2[(S)-2-methoxycarbonylamino]-3-phenylpropanamido]-2-[2-(thiophen-2-yl)thiazol-4-yl]ethyl}phenylsulfamic acid) in water, HPβCD, Poloxamer 407, and sulfobutylether-β-cyclodextrin, is provided in TABLE III. Solubility in saline for the test compound is reduced presumably due to the common ion effect. All the solubilizing agents tested provided good improvements in aqueous solubility of the test compound.
The solubility (mg/mL) of the test compound in mixtures of HPβCD and PEG400 is illustrated in TABLE IV. Use of either HPβCD or PEG400 individually provided an increase in solubility. However, addition of PEG400 to a mixture of the test compound and HPβCD caused an erosion of solubility, with solubility being inversely proportional to the amount of PEG400.

[4] = system: human subjects with visual acuity loss due to diabetic macular edema; test: Study of human subjects with diabetic macular edema given the compound subcutaneously, then intravitreal anti-VEGF agent; assay type: in vivo
Procedure: Described herein is a study of four human subjects with visual acuity loss due to diabetic macular edema (central retinal thickness [CRT] of more than 325 microns and best corrected visual acuity less than 70 letters) that were treated with subcutaneous injections of 5 mg of 4-{(S)-2-[(S)-2-methoxycarbonyl-amino]-3-phenylpropanamido]-2-[2-(thiophen-2-yl)thiazol-4-yl]ethyl}phenylsulfamic acid twice a day for 28 days. […] At any time during the course of the study, investigators could administer additional therapy of intravitreal injection of an anti-VEGF agent, for example, ranibizumab, bevacizumab, and/or aflibercept, if considered by the investigator to be medically necessary. Retinal thickness as measured by ocular coherence tomography and best-corrected visual acuity as measured by a standard vision test (ETDRS) were assessed at regular intervals during the 28 day active treatment phase and through the 2 month post-treatment observation phase, (Screening, Day 1 [baseline], Day 7, Day 14, Day 21, Day 28, Day 42, Day 56 and Day 84). The main efficacy outcomes for the study were change in CRT and visual acuity over time with treatment.
FIG. 47 depicts the results of a study wherein 4 patients received 5 mg of 4-{(S)-2-[(S)-2-methoxycarbonylamino]-3-phenylpropanamido]-2-[2-(thiophen-2-yl)thiazol-4-yl]ethyl}phenylsulfamic acid subcutaneously twice daily for 28 days and subsequently were treated in one or both eyes (7 eyes total) with either ranibizumab (0.3 or 0.5 mg) or aflibercept (2 mg) by intravitreal injection at the discretion of the study investigator.
FIG. 49 depicts the increased visual acuity of a study wherein 4 patients received 5 mg of 4-{(S)-2-[(S)-2-methoxycarbonylamino]-3-phenylpropanamido]-2-[2-(thiophen-2-yl)thiazol-4-yl]ethyl}phenylsulfamic acid subcutaneously twice daily for 28 days, and subsequently were treated with either ranibizumab (0.3 or 0.5 mg) or aflibercept (2 mg) by intravitreal injection at the discretion of the study investigator. FIG. 49 is read as follows. […] The mean change in Visual Acuity was 9 letters, approximately 3 to 5 letters more improvement than seen in the benchmark study of ranibizumab alone depicted in FIG. 48.
FIG. 50 represents the results of a single patient. The eye having the greater Central Foveal Thickness (CFT) was chosen as the study eye. From day 1, the patient was given 5 mg of 4-{(S)-2-[(S)-2-methoxycarbonylamino]-3-phenylpropanamido]-2-[2-(thiophen-2-yl)thiazol-4-yl]ethyl}phenylsulfamic acid subcutaneously twice daily. At week 3 (21 days, indicated by arrow) the fellow eye was treated with 0.5 mg of ranibizumab by injection. At week 6 (42 days, indicated by arrow) the study eye was treated with 0.5 mg of ranibizumab.
FIG. 51 represents the results of a single patient. The eye having the greater CFT was chosen as the Study Eye. The patient from day one was given 5 mg of 4-{(S)-2-[(S)-2-methoxycarbonylamino]-3-phenylpropanamido]-2-[2-(thiophen-2-yl)thiazol-4-yl]ethyl}phenylsulfamic acid subcutaneously twice daily. At week 4 (28 days, indicated by arrow) the fellow eye was rescued with 2 mg of aflibercept. […] At week 6 (42 days, indicated by arrow) the study eye was rescued with 2 mg of aflibercept. […] From onset of the study, a reduction was observed of CFT in the study eye and the fellow eye of approximately 300 μm and 280 μm, respectively.

COC(=O)N[C@@H](Cc1ccccc1)C(=O)N[C@@H](Cc1ccc(NS(=O)(=O)O)cc1)c1csc(-c2cccs2)n1 [Compound D]
relative Akt phosphorylation (OD450) ([1]; 1 μg/mL): 1.2
relative Akt phosphorylation (OD450) ([1]; 3 μg/mL): 3.1
relative Akt phosphorylation (OD450) ([1]; 10 μg/mL): did not increase further
Tie2 phosphorylation compared to the DMSO control [2]: substantial increase
Solubility ([3]; 0% HPβCD, 15% PEG400): 30 mg/mL (≈ 51.1 mM)
Solubility ([3]; 0% HPβCD, 30% PEG400): 68 mg/mL (≈ 116 mM)
Solubility ([3]; 15% HPβCD, 0% PEG400): 59 mg/mL (≈ 101 mM)
Solubility ([3]; 15% HPβCD, 5% PEG400): 57 mg/mL (≈ 97.2 mM)
Solubility ([3]; 15% HPβCD, 10% PEG400): 34 mg/mL (≈ 57.9 mM)
Solubility ([3]; 15% HPβCD, 15% PEG400): 6 mg/mL (≈ 10.2 mM)
Central Foveal Reduction, individual patient eyes ([4]; 5 mg sc twice daily 28 days, then ranibizumab or aflibercept intravitreal, 14-28 days post anti-VEGF (FIG. 47), listed as 4-{(S)-2-[(S)-2-methoxycarbonylamino]-3-phenylpropanamido]-2-[2-(thiophen-2-yl)t): 50-100 μm and 150-200 μm and 200-250 μm and 300-350 μm and 350-400 μm and 450-500 μm
improvement of visual acuity ([4]; 5 mg subcutaneously twice a day for 28 days, observed days 28 through 84): Improvement of visual acuity in these subjects was observed
reduction in Central Foveal Thickness relative to ranibizumab injection in the study in FIG. 46 ([4]; compound sc then anti-VEGF versus ranibizumab alone): approximately double
fall in CFT of the fellow eye ([4]; single patient (FIG. 50), 5 mg sc twice daily, fellow eye given 0.5 mg ranibizumab at week 3, by week 4): 350 μm
reduction in CFT in the study eye ([4]; single patient (FIG. 50), day 21 to day 28, after ranibizumab to fellow eye): approximately 250 μm
CFT of the study eye ([4]; single patient (FIG. 50), week 6, before ranibizumab to study eye): approximately 775 μm
CFT of the study eye ([4]; single patient (FIG. 50), week 8): approximately 225 μm
reduction of CFT in the fellow eye from onset of the study ([4]; single patient (FIG. 51)): ~280 μm
